{
  "source": "patent US20120027741A1",
  "about": "(priority 2009, published 2012)",
  "type_in_all_cases": "in vivo",
  "key": {"Phytophthora infestans": {"test_system": "Phytophthora infestans", "test": "whole plant or invertebrate", "details": "Phytophthora infestans, 72 h, tomatoes, 3 days after inoculation; for pest or weed control at 0.4 ppm: 0.4 ppm a.i.; for pest or weed control at 0.125 ppm: 0.125 ppm a.i.; for pest or weed control at 0.5 ppm: 0.5 ppm a.i."}, "Sphaerotheca fuliginea": {"test_system": "Sphaerotheca fuliginea", "test": "Sphaerotheca test (cucumbers)/protective", "details": "Podosphaera fuliginea, 168 h, 7 days after inoculation, read-out: Efficacy in % found", "experimental": "Sphaerotheca Test (Cucumbers)/Protective\n(§1) Solvent: • 24,5 parts by weight of acetone • 24,5 parts by weight of dimethylacetamide\n(§2) Emulsifier: • 1 part by weight of alkylaryl polyglycol ether\n(§3) To produce a suitable preparation of active compound, 1 part by weight of active compound is mixed with the stated amounts of solvent and emulsifier, and the concentrate is diluted with water to the desired concentration.\nTo test for protect activity, young plants are sprayed with the preparation of active compound at the stated rate of application. After the spray coating has dried on, the plants are inoculated with to an aqueous spore suspension of Sphaerotheca fuliginea. The plants are then placed in a greenhouse at approximately 23° C. and a relative atmospheric humidity of approximately 70%.\nThe test is evaluated 7 days after the inoculation. 0% means an efficacy which corresponds to that of the control, while an efficacy of 100% means that no disease is observed."}, "Botrytis cinerea": {"test_system": "Botrytis cinerea", "test": "Botrytis test (beans)/protective", "details": "48 h, 2 days after inoculation, read-out: Efficacy in % found", "experimental": "Botrytis Test (Beans)/Protective\nas §1, §2, §3\nTo test for protective activity, young plants are sprayed with the preparation of active compound. After the spray coating has dried on, 2 small pieces of agar covered with growth of Botrytis cinerea are placed on each leaf. The inoculated plants are placed in a darkened chamber at 20° C. and a relative atmospheric humidity of 100%.\n2 days after the inoculation, the size of the lesions on the leaves is evaluated. 0% means an efficacy which corresponds to that of the control, while an efficacy of 100% means that no disease is observed."}, "Pythium ultimum": {"test_system": "Pythium ultimum", "test": "Pythium test (cotton)/seed treatment", "details": "Table 11, 0.1 g a.i./dt, emerged seedlings after 7 days", "experimental": "Pythium Test (Cotton)/Seed Treatment\nThe test is performed under greenhouse conditions.\nCotton seeds, treated with the active compound or compound combinations, solved in N-methyl-2-pyrrolidon and diluted with water to the desired dosages, were sown in 6*6 cm pots containing 4 cm of a 1:1 mix of steamed field soil and sand.\nPerlite was incubated with mycelium fragments of Pythium ultimum. 1 ml of infected perlite was scattered between the treated cotton seeds. Seeds were then covered by light expanded clay aggregate. Pots were incubated in the greenhouse 7 days at 20° C. and 80% relative humidity.\nAssessment consisted of counting of emerged seedlings. 0% means an efficacy which to corresponds to that of the control, while an efficacy of 100% means that all seedlings have emerged."}, "[1]": {"details": "read-out: Efficacy in % found, Table 3"}},
  "note": "Like-named read-outs stand apart in the source and are kept apart here.",
  "data": [
    {"smiles": "C#CCCOC(=O)Nc1cccc(CO/N=C(/c2ccccc2)c2nnnn2C)n1", "note": "[Ex. A, but-3-yn-1-yl {6-[({[(Z)-(1-methyl-1H-tetrazol-5-yl)(phenyl)methylene]amino}oxy)methyl]pyridin-2-yl}carbamate]", "values": [
      {"measurement": "pest or weed control at 0.1 ppm", "setting": "Phytophthora infestans; read-out: Efficacy in % found, Table 1, 0.1 ppm a.i.", "result": 7, "unit": "%"},
      {"measurement": "pest or weed control at 0.2 ppm", "setting": "Phytophthora infestans; read-out: Efficacy in % found, Table 1, 0.2 ppm a.i.", "result": 23, "unit": "%"},
      {"measurement": "pest or weed control at 0.4 ppm", "setting": "Phytophthora infestans; read-out: Efficacy in % found, Table 1", "result": 16, "unit": "%"},
      {"measurement": "pest or weed control at 0.125 ppm", "setting": "Phytophthora infestans; read-out: Efficacy in % found, Table 2", "result": 20, "unit": "%"},
      {"measurement": "pest or weed control at 0.125 ppm", "setting": "Phytophthora infestans; [1]", "result": 35, "unit": "%"},
      {"measurement": "pest or weed control at 0.5 ppm", "setting": "Phytophthora infestans; [1]", "result": 74, "unit": "%"},
      {"measurement": "pest or weed control at 0.4 ppm", "setting": "Phytophthora infestans; read-out: Efficacy in % found, Table 4", "result": 55, "unit": "%"},
      {"measurement": "pest or weed control at 0.5 ppm", "setting": "Phytophthora infestans; read-out: Efficacy in % found, Table 5", "result": 70, "unit": "%"},
      {"measurement": "pest or weed control at 0.125 ppm", "setting": "Phytophthora infestans; read-out: Efficacy in % found, Table 6", "result": 58, "unit": "%"},
      {"measurement": "pest or weed control at 25 ppm", "setting": "Sphaerotheca fuliginea; Table 7, 25 ppm a.i.", "result": 13, "unit": "%"},
      {"measurement": "pest or weed control at 50 ppm", "setting": "Sphaerotheca fuliginea; Table 7, 50 ppm a.i.", "result": 13, "unit": "%"},
      {"measurement": "pest or weed control at 100 ppm", "setting": "Sphaerotheca fuliginea; Table 7, 100 ppm a.i.", "result": 13, "unit": "%"},
      {"measurement": "pest or weed control at 100 ppm", "setting": "Sphaerotheca fuliginea; Table 8, 100 ppm a.i.", "result": 0, "unit": "%"},
      {"measurement": "pest or weed control at 25 ppm", "setting": "Botrytis cinerea; Table 9, 25 ppm a.i.", "result": 15, "unit": "%"},
      {"measurement": "pest or weed control at 50 ppm", "setting": "Botrytis cinerea; Table 9, 50 ppm a.i.", "result": 40, "unit": "%"},
      {"measurement": "pest or weed control at 50 ppm", "setting": "Botrytis cinerea; Table 10, 50 ppm a.i.", "result": 0, "unit": "%"},
      {"measurement": "Efficacy in % found", "setting": "Pythium ultimum", "result": 30, "unit": "%"}
    ]}
  ]
}
